Consider two molecules from PMC12728616, “Regioselective Glycosylation of Fluorine-18-Labeled Sorbitol for Enhanced Bacterial Detection In Vivo Using PET” (JACS Au, 2025).

The nature of data set [1]: Dynamic PET/CT and ex vivo biodistribution in uninfected mice. The note with it: for ex vivo residual activity in organs versus [18F]FDS: heart, lung, stomach, liver, intestine, kidney, muscle, after 90 min PET/CT; for peak uptake (Cmax) in bladder / peak uptake (Cmax) in kidneys / peak uptake (Cmax) in liver: dynamic PET 90 min; for elimination half-life (T1/2β) / plasma distribution half-life (T1/2α): blood pool TAC, two-compartment fit. The protocol:
To assess the effect of [^18F]-FDS glycosylation on tissue uptake in vivo, we performed dynamic PET/CT scans for 90 min after the intravenous injection of [^18F]-FNT, [^18F]-FMT, and [^18F]-FDS in uninfected mice, followed by ex vivo analysis.
(§1) μPET/CT imaging was conducted using a nanoScan μPET/CT instrument (PET123S/CT1512, Mediso). Mice were anesthetized with 2% isoflurane/oxygen for intravenous administration of ^18F-tracers (∼5 MBq in 150 μL) via tail vein and maintained during data acquisition. PET data of uninfected mice were acquired in the list mode for 90 min, starting immediately after ^18F-tracer administration, followed by a CT scan. The PET data were reconstructed into three-dimensional volumes and coregistered with CT images using manufacturer-provided software in 53 dynamic frames (15 × 2 s, 6 × 5 s, 6 × 10 s, 4 × 30 s, 6 × 30 s, and 16 × 300 s). PET data of infected mice were acquired for 20 min, starting at 70 min postinjection of ^18F-tracer (mid time 80 min), followed by a CT scan. The list mode PET data were reconstructed into three-dimensional volumes in a single static frame. All PET scans were corrected for ^18F decay, dead time, and random coincidences and reconstructed into a 160 × 160 × 184 matrix with voxel size 0.8 mm using a three-dimensional ordered subject expectation maximization (OSEM) algorithm (40 iterations, 1 subset). Both attenuation and scatter corrections were applied to PET reconstructions using the coregistered CT. ROIs were drawn manually around the brain, lungs, liver, kidney, and urinary bladder using Amide software to generate image-derived TACs. For the estimation of blood pool radioactivity over time, ROIs were drawn on the left atrium. To estimate the plasma half-life of tracers, the TAC of the blood pool was fitted to a two-compartment model using a biexponential decay function: C t(t) = Ae ^–αt + Be ^ ‑βt , where C t(t) is the tracer concentration (% IDcc^–1) at time (t), A and B are the intercepts, and α and β are the distribution and elimination rate constants, respectively. , Quantitative uptake values are expressed as % IDcc^–1, representing the percent of the total injected dose per cubic centimeter. For the S. aureus myositis model, identical volume ROIs were drawn corresponding to the peak uptake of [^18F]-FNT at the live S. aureus inoculated site and heat-killed S. aureus inoculated site, respectively.

For data set [2], the system named is K. pneumoniae. Description: PET/CT in K. pneumoniae pneumonia murine model. It is filed as in vivo, mice. The settings on record: for PET signal in heat-killed K. pneumoniae inoculated lungs: 10x heat-killed K. pneumoniae; for ex vivo infected/uninfected lung ratio: ex vivo gamma counting after PET; for ROI-derived infected/uninfected lung ratio: in vivo PET, 80 min postinjection (mid time), 24 h after intranasal K. pneumoniae. The protocol:
Given promising low background signals in uninfected mice, we further evaluated [^18F]-FNT and [^18F]-FMT in two different clinically relevant mouse models of lung and muscle infections. […] PET scanning was performed at 24 h postintranasal bacterial installation (Figure A). […] The ROI-derived infected/uninfected lung ratios of [^18F]-FDS, [^18F]-FMT, and [^18F]-FNT were approximately 3.2, 6.1, and 5.9-fold, respectively (Figure C), also supported by the ex vivo infected/uninfected lung ratio of [^18F]-FDS (∼1.6-fold), [^18F]-FMT (∼5.7-fold), and [^18F]-FNT (∼5.7-fold) (Figure D). Post-PET scans, infected lungs were harvested to determine colony forming units (CFUs). No significant differences in bacterial counts were observed among [^18F]-FDS, [^18F]-FMT, and [^18F]-FNT (Figure E). To confirm radiotracer specificity, we also evaluated mice inoculated with 10x heat-killed K. pneumoniae into lungs (Supporting Information Figure S5A–C).
All animal procedures were conducted in accordance with UCSF institutional guidelines and were approved by the Institutional Animal Care and Use Committee (IACUC). Female CBA/J mice (9 and 11 weeks old) were used for the study. Pulmonary infection and bacterial myositis models were established based on previously published protocols. , For pulmonary infection, 50 μL of K. pneumoniae (5 × 10^6 CFU) or 10× heat-killed K. pneumoniae were administered intranasally under anesthesia 24 h prior to imaging using PET. After PET scans, infected lungs were homogenized in PBS and plated on LB agar. Plates were incubated overnight at 37 °C to quantify the bacterial burden. For the bacterial myositis model, mice were intramuscularly injected with either 1 × 10^6 CFUs of live S. aureus (MSSA or MRSA) or 1 × 10^7 CFUs of heat-killed bacteria (50 μL) into the left and right deltoid muscles, respectively, 10 h prior to imaging using PET. Immediately following all imaging studies, target tissues were harvested, and radioactivity was measured using a gamma counter.
as §1, with “For the S. aureus myositis model, identical volume ROIs were drawn corresponding to the peak uptake of [^18F]-FNT at the live S. aureus inoculated site and heat-killed S. aureus inoculated site, respectively.” left out

Data set [3] can be described thus: In vitro stability in serum. It is filed as in vitro ADME, human. The settings on record: up to 120 min at 37 °C.
Data set [4] is described as follows: In vitro stability in serum. The settings on record: up to 120 min at 37 °C. It is filed as in vitro ADME, mouse.

Several values for one entry are separate records, joined by “and”; a condition that tells them apart may be missing. Equal values may be shown once.

`OC[C@@H](O)[C@@H](O[C@H]1O[C@H](CO)[C@@H](O)[C@H](O)[C@H]1O)[C@H](O)[C@@H]([18F])CO` [[18F]FMT, 2-deoxy-2-[18F]fluoro-D-maltitol]: in data set [1], the “ex vivo residual activity in organs versus [18F]FDS” value is on record as “significantly lower residual activity”. In data set [1] (uninfected mice, i.v.), the “peak uptake (Cmax) in bladder” value was found to be 562.7 ± 31.3 % IDcc^–1, the “peak uptake (Cmax) in kidneys” value came out at 102.3 ± 8.4 % IDcc^–1 and the “peak uptake (Cmax) in liver” value amounted to 17.7 ± 0.9 % IDcc^–1. In addition, in data set [1] (uninfected mice), the “elimination half-life (T1/2β)” value amounted to 12.70 min and the “plasma distribution half-life (T1/2α)” value was 0.55 min. Also, in data set [2], the “PET signal in heat-killed K. pneumoniae inoculated lungs” value is on record as “No visible signal”; the “ex vivo infected/uninfected lung ratio” value is given as ~5.7 fold; the “ROI-derived infected/uninfected lung ratio” value is ~6 fold and ~6.1 fold. The “in vitro stability in human serum” value in data set [3] is recorded as “intact”. Besides, in data set [4], the “in vitro stability in mouse serum” value is given as “intact”.
Turning to `OC[C@@H](O)[C@@H](O)[C@H](O[C@H]1O[C@H](CO)[C@@H](O)[C@H](O)[C@H]1O)[C@@H]([18F])CO` [[18F]FNT, 2-deoxy-2-[18F]fluoro-D-nigeritol], the “ex vivo residual activity in organs versus [18F]FDS” value in data set [1] was “significantly lower residual activity”. Also, in data set [1] (uninfected mice, i.v.), the “area under the curve (AUC0→90min) in bladder” value amounted to 44418.3 ± 950.9 % IDcc^–1·min, the “area under the curve (AUC0→90min) in liver” value is on record as 105.7 ± 4.0 % IDcc^–1·min, the “peak uptake (Cmax) in bladder” value was determined as 606.8 ± 9.0 % IDcc^–1 and the “peak uptake (Cmax) in kidneys” value stood at 104.5 ± 14.2 % IDcc^–1. In data set [1] (uninfected mice, i.v.), the “peak uptake (Cmax) in liver” value amounted to 19.2 ± 0.9 % IDcc^–1. Also, in data set [1] (uninfected mice), the “elimination half-life (T1/2β)” value came to 14.07 min and the “plasma distribution half-life (T1/2α)” value was found to be 0.52 min. Besides, in data set [2], the “PET signal in heat-killed K. pneumoniae inoculated lungs” value is “No visible signal”; the “ex vivo infected/uninfected lung ratio” value is ~5.7 fold; the “ROI-derived infected/uninfected lung ratio” value is ~6 fold and ~5.9 fold. The “in vitro stability in human serum” value in data set [3] is given as “intact”. Moreover, the “in vitro stability in mouse serum” value in data set [4] is on record as “intact”.
